ChEMBL document CHEMBL1201862, “PubChem BioAssay data set” (2004)
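Cultured in 96-well plates, cells were exposed to test compound for 48 hours across five concentrations. Here, GI50 denotes the concentration required for 50% inhibition of growth.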 Activity calls are given as the source filed them. Cut-off read from the data, not from the text of the source: active = GI50 up to about 1.1 µM and inactive = higher.

How the values were obtained:
Assay in all cases: NCI anticancer screen, dose series, 48 h
NCI-H226 = system: NCI-H226
HCC 2998 = system: HCC 2998
IGROV-1 = system: IGROV-1
SNB-75 = system: SNB-75
BT-549 = system: BT-549
UO-31 = system: UO-31
A498 = system: A498
CAKI-1 = system: CAKI-1
ACHN = system: ACHN
PC-3 = system: PC-3
SW-620 = system: SW-620
OVCAR-8 = system: OVCAR-8
Hs-578T = system: Hs-578T
M14 = system: M14
NCI-H460 = system: NCI-H460
NCI/ADR-RES = system: NCI/ADR-RES
RXF 393 = system: RXF 393
MDA-MB-231 = system: MDA-MB-231
SF-539 = system: SF-539
SK-OV-3 = system: SK-OV-3

## S=c1nc(N2CCCCC2)c2cn[nH]c2[nH]1
NCI-H226
  GI50: > 100 µM (inactive)
HCC 2998
  GI50: 44 µM (inactive)
IGROV-1
  GI50: 22.1 µM (inactive)
SNB-75
  GI50: > 100 µM (inactive)
BT-549
  GI50: 26.1 µM (inactive)
UO-31
  GI50: 23.9 µM (inactive)
A498
  GI50: > 100 µM (inactive)
CAKI-1
  GI50: 27.7 µM (inactive)
ACHN
  GI50: 54.6 µM (inactive)
PC-3
  GI50: 59.2 µM (inactive)
SW-620
  GI50: 57 µM (inactive)
OVCAR-8
  GI50: 64.9 µM (inactive)
Hs-578T
  GI50: 57.4 µM (inactive)
M14
  GI50: 74 µM (inactive)
NCI-H460
  GI50: 42.3 µM (inactive)
NCI/ADR-RES
  GI50: > 100 µM (inactive)
RXF 393
  GI50: 91.8 µM (inactive)
MDA-MB-231
  GI50: > 100 µM (inactive)
SF-539
  GI50: 52.6 µM (inactive)

## COc1ccc(C2CC(C)(O)Oc3cc4c(cc32)OCO4)cc1 (stereo not drawn)
NCI-H226
  GI50: 53.7 µM (inactive)
HCC 2998
  GI50: 47.6 µM (inactive)
IGROV-1
  GI50: 29.5 µM (inactive)
SNB-75
  GI50: 29.7 µM (inactive)
BT-549
  GI50: 17.3 µM (inactive)
UO-31
  GI50: 37.1 µM (inactive)
A498
  GI50: 30.9 µM (inactive)
CAKI-1
  GI50: 41.7 µM (inactive)
ACHN
  GI50: 43.2 µM (inactive)
PC-3
  GI50: 18.7 µM (inactive)
SW-620
  GI50: 36 µM (inactive)
OVCAR-8
  GI50: 35 µM (inactive)
Hs-578T
  GI50: 26.6 µM (inactive)
M14
  GI50: 36 µM (inactive)
NCI-H460
  GI50: 31.4 µM (inactive)
NCI/ADR-RES
  GI50: 23.3 µM (inactive)
RXF 393
  GI50: 0.0855 µM (active)
MDA-MB-231
  GI50: 32.6 µM (inactive)
SF-539
  GI50: 38.9 µM (inactive)

## Nc1ncc2c(n1)-c1ccccc1OC2N1CCCCC1 (stereo not drawn)
NCI-H226
  GI50: > 100 µM (inactive)
SK-OV-3
  GI50: > 100 µM (inactive)
IGROV-1
  GI50: > 100 µM (inactive)
SNB-75
  GI50: > 100 µM (inactive)
BT-549
  GI50: > 100 µM (inactive)
UO-31
  GI50: > 100 µM (inactive)
A498
  GI50: > 100 µM (inactive)
CAKI-1
  GI50: > 100 µM (inactive)
ACHN
  GI50: > 100 µM (inactive)
PC-3
  GI50: > 100 µM (inactive)
SW-620
  GI50: > 100 µM (inactive)
OVCAR-8
  GI50: > 100 µM (inactive)
Hs-578T
  GI50: > 100 µM (inactive)
M14
  GI50: > 100 µM (inactive)
NCI-H460
  GI50: > 100 µM (inactive)
NCI/ADR-RES
  GI50: > 100 µM (inactive)
RXF 393
  GI50: > 100 µM (inactive)
MDA-MB-231
  GI50: > 100 µM (inactive)
SF-539
  GI50: > 100 µM (inactive)

## COP(=O)(OC)C12CCOCCN1c1ccccc1C2=O (stereo not drawn)
NCI-H226
  GI50: > 100 µM (inactive)
HCC 2998
  GI50: > 100 µM (inactive)
SK-OV-3
  GI50: > 100 µM (inactive)
IGROV-1
  GI50: > 100 µM (inactive)
SNB-75
  GI50: > 100 µM (inactive)
BT-549
  GI50: > 100 µM (inactive)
UO-31
  GI50: > 100 µM (inactive)
A498
  GI50: > 100 µM (inactive)
CAKI-1
  GI50: > 100 µM (inactive)
ACHN
  GI50: > 100 µM (inactive)
PC-3
  GI50: > 100 µM (inactive)
SW-620
  GI50: > 100 µM (inactive)
OVCAR-8
  GI50: > 100 µM (inactive)
Hs-578T
  GI50: > 100 µM (inactive)
M14
  GI50: > 100 µM (inactive)
NCI-H460
  GI50: > 100 µM (inactive)
NCI/ADR-RES
  GI50: > 100 µM (inactive)
MDA-MB-231
  GI50: > 100 µM (inactive)
SF-539
  GI50: > 100 µM (inactive)

## Nc1nc(N)c2cc(-c3cc4ccccc4[nH]3)ccc2n1
NCI-H226
  GI50: 27.7 µM (inactive)
SK-OV-3
  GI50: 45.3 µM (inactive)
IGROV-1
  GI50: 15.8 µM (inactive)
SNB-75
  GI50: 32.4 µM (inactive)
BT-549
  GI50: 23 µM (inactive)
UO-31
  GI50: 15.7 µM (inactive)
A498
  GI50: 18.1 µM (inactive)
CAKI-1
  GI50: 27.4 µM (inactive)
ACHN
  GI50: 18.9 µM (inactive)
PC-3
  GI50: 26.2 µM (inactive)
SW-620
  GI50: 30.8 µM (inactive)
OVCAR-8
  GI50: 32.5 µM (inactive)
Hs-578T
  GI50: 32.1 µM (inactive)
M14
  GI50: 17.6 µM (inactive)
NCI-H460
  GI50: 19.2 µM (inactive)
NCI/ADR-RES
  GI50: 30.3 µM (inactive)
RXF 393
  GI50: 24.8 µM (inactive)
MDA-MB-231
  GI50: 17.2 µM (inactive)
SF-539
  GI50: 19.5 µM (inactive)

## N#CC1C(=S)NC(c2ccccc2)=CC12CCCCC2 (stereo not drawn)
NCI-H226
  GI50: 26.7 µM (inactive)
HCC 2998
  GI50: > 100 µM (inactive)
IGROV-1
  GI50: 23.4 µM (inactive)
SNB-75
  GI50: 58.7 µM (inactive)
BT-549
  GI50: 15.8 µM (inactive)
UO-31
  GI50: 25 µM (inactive)
A498
  GI50: 22.8 µM (inactive)
CAKI-1
  GI50: 47.3 µM (inactive)
ACHN
  GI50: 25.1 µM (inactive)
PC-3
  GI50: 38 µM (inactive)
SW-620
  GI50: 38.8 µM (inactive)
OVCAR-8
  GI50: 32.1 µM (inactive)
Hs-578T
  GI50: 53.7 µM (inactive)
M14
  GI50: 26.1 µM (inactive)
NCI-H460
  GI50: 94.8 µM (inactive)
NCI/ADR-RES
  GI50: 28.8 µM (inactive)
RXF 393
  GI50: 87.1 µM (inactive)
MDA-MB-231
  GI50: 38.9 µM (inactive)
SF-539
  GI50: 43 µM (inactive)

## c1ccc(NNN2NC(c3ccccc3)C2c2ccccc2)cc1 (stereo not drawn)
NCI-H226
  GI50: > 100 µM (inactive)
HCC 2998
  GI50: > 100 µM (inactive)
SK-OV-3
  GI50: > 100 µM (inactive)
SNB-75
  GI50: > 100 µM (inactive)
BT-549
  GI50: > 100 µM (inactive)
UO-31
  GI50: 36.6 µM (inactive)
A498
  GI50: > 100 µM (inactive)
CAKI-1
  GI50: > 100 µM (inactive)
ACHN
  GI50: > 100 µM (inactive)
PC-3
  GI50: > 100 µM (inactive)
SW-620
  GI50: > 100 µM (inactive)
OVCAR-8
  GI50: > 100 µM (inactive)
Hs-578T
  GI50: > 100 µM (inactive)
M14
  GI50: > 100 µM (inactive)
NCI-H460
  GI50: 72.4 µM (inactive)
NCI/ADR-RES
  GI50: 97.3 µM (inactive)
RXF 393
  GI50: 24.3 µM (inactive)
MDA-MB-231
  GI50: > 100 µM (inactive)
SF-539
  GI50: > 100 µM (inactive)
